For data set [1] the following is noted: conventional probes, short wavelength excitation light; cited from earlier work.
A short description of data set [2]: Selectivity for zinc ions: fluorescence intensity in buffer containing various metal ions. Conditions: 1 μM compound. The procedure: Compound 6 obtained in Example 1 and Compound 12 obtained in Example 2 were used to evaluate selectivity for zinc ions. 5 μM of Compound 6 or Compound 12 was added in 100 mM HEPES buffer (pH 7.5) containing various metal ions (5 μM or 5 mM). The fluorescence intensity was measured at the excitation wavelength of 491 nm and the fluorescence wavelength of 513 nm for Compound 6, and the excitation wavelength of 492 nm and the fluorescence wavelength of 514 nm for Compound 12. The results are shown in FIG. 1 (Compound 6) and FIG. 2 (Compound 12). 1 μM of Compound 21 was added in 100 mM HEPES buffer (pH 7.5) containing various metal ions (1 μM or 5 mM), and the fluorescence intensity was measured at the excitation wavelength of 505 nm and the fluorescence wavelength of 522 nm.
In the figures, the fluorescence intensities on the ordinate axis are shown as numerical values with addition of each metal ion relative to the fluorescence intensity without addition of metal ion which is taken as 1.

Data set [3] is described as follows: Changes in fluorescence intensity with relation to pH changes. Format: physicochemical. Conditions: pH of around 7.4 (intracellular pH). Here is the method:
Changes in fluorescence intensity of Compound 12, Compound 21, and zinc complexes thereof were investigated with relation to pH changes. The fluorescence intensity was measured at the excitation wavelength of 492 nm and the fluorescence wavelength of 514 nm for Compound 12, and the excitation wavelength of 505 nm and the fluorescence wavelength of 522 nm for Compound 21.
Buffers used are as follows.
100 mM Cl2CHCOOH—Cl2CHCOONa buffer (pH 2.0)
100 mM ClCH2COOH—ClCH2COONa buffer (pH 3.0)
100 mM CHES buffer (pH 8.5)

The nature of data set [4]: Changes with time in fluorescence intensity after addition of zinc ion. Conditions: 5 μM compound, zinc ion 5 μM or 50 μM, 100 mM HEPES pH 7.5. Here is the method: Zinc ion (final concentration 5 μM or 50 μM) was added in 100 mM HEPES (pH 7.5) containing 5 μM Compound 6, Compound 12, or ACF-1 (a compound having a cyclic polyamine moiety described as Compound (20) in Example 1 in Japanese Patent Application No. (Hei) 11-40325) to measure fluorescence intensity. The fluorescence intensity was measured at the excitation wavelength of 491 nm and the fluorescence wavelength of 513 nm for Compound 6, the excitation wavelength of 492 nm and the fluorescence wavelength of 514 nm for Compound 12, and the excitation wavelength of 495 nm and the fluorescence wavelength of 515 nm for ACF-1. In the figure, the ordinate axis represents relative fluorescence intensity. […] Accordingly, the use of the compound according to the present invention enables very quick detection of zinc, and also enables the detection of rapid change in the concentration of zinc.

Regarding `CN(C)c1cccc2c(S(=O)(=O)NCCN3CCNCCNCCNCC3)cccc12` [Dansylaminoethylcyclen], in data set [1], the excitation wavelength is 323 nm.
As for `O=C1C=C2Oc3cc(O)c(Cl)cc3C(c3ccc(NCCN(Cc4ccccn4)Cc4ccccn4)cc3C(=O)O)C2C=C1Cl` (centres unmarked) [Compound 21], the selectivity for zinc entry in data set [2] (100 mM HEPES buffer pH 7.5, various metal ions 1 μM or 5 mM) is listed as “high selectivity”. For the same compound, in data set [2] (HEPES pH 7.5), the “effect of sodium, potassium, calcium, magnesium on the increase in fluorescence intensity caused by zinc” value was “did not affect”. Moreover, in data set [2] (metal ions at high concentration (5 mM), HEPES pH 7.5), the “increase in fluorescence intensity on addition of sodium, potassium, calcium and magnesium” value is reported as “almost no increase”. Also, the “stability of fluorescence intensity to pH changes” value in data set [3] was “more stable than Compound 12”.
Turning to `COc1cc(NS(=O)(=O)c2ccc(C)cc2)c2ncccc2c1` [TSQ], the excitation wavelength in data set [1] is 367 nm.
As for `CCOC(=O)COc1cc(NS(=O)(=O)c2ccc(C)cc2)c2nc(C)ccc2c1` [Zinquin], in data set [1], the excitation wavelength is recorded as 368 nm.
With `CN1CCN(C)CCN(c2ccc(-c3c4ccc(=O)cc-4oc4cc(O)ccc34)cc2)CCN(C)CC1` [ACF-1], in data set [4], the “increase of fluorescence intensity with time after zinc ion addition” value is reported as “not instantly increased”.

The record behind these values is US7074823B2, “Fluorescent probe for zinc” (Daiichi Pure Chemical Co., Ltd., priority 2000, dated 2006).
